# Values joined by “and” are separate entries in the source; they are usually repeats but may differ in a detail not shown here. Equal entries are not always repeated. Where no end group is shown, it is not given here.
# Assays:
# brain [1] = experiment: In vivo panning of phage peptide display libraries, brain as the selected organ (kidney control); design: species or system mice; details: phage recovered from brain; for (% PHAGE): % of the 73 clones sequenced; for # PHAGE DISPLAYING SAME A.A. SEQUENCE: second and third rounds of in vivo panning, 73 cloned phage sequenced
# Protocol: Phage display libraries were constructed using the fuse 5 vector as described by Koivunen et al. (supra, 1995; see, also, Koivunen et al. Meth. Enzymol. 245:346-369 (1994b), which is incorporated herein by reference). Six libraries encoding peptides designated CX5C (SEQ ID NO: 36), CX6C (SEQ ID NO: 37), CX7C (SEQ ID NO: 38), CX9 (SEQ ID NO: 39), X2CX14CX2 (SEQ ID NO: 40) and X2CX18 (SEQ ID NO: 41) were prepared, where "C" indicates cysteine and "XN" indicates the given number of individually selected amino acids. These libraries can display cyclic peptides when at least two cysteine residues are present in the peptide.
# Oligonucleotides were constructed such that "C" was encoded by the codon TGT and "XN" was encoded by NNK, where "N" is equal molar mixtures of A, C, G and T, and where "K" is equal molar mixtures of G and T. Thus, the peptide represented by CX5C (SEQ ID NO: 36) can be represented by an oligonucleotide having the sequence TGT(NNK)5TGT (SEQ ID NO: 42). Oligonucleotides were made double stranded by 3 cycles of PCR amplification, purified and ligated to the nucleic acid encoding the gene III protein in the fuse 5 vector such that, upon expression, the peptide is present as a fusion protein at the N-terminus of the gene III protein.
# The vectors were transfected by electroporation into MC1061 cells. Bacteria were cultured for 24 hr in the presence of 20 µg/ml tetracycline, then phage were collected from the supernatant by precipitation twice using polyethylene glycol. Each library contained about 5 x 10^9 to 5 x 10^14 transducing units (TU; individual recombinant phage).
# (§1) A mixture of phage libraries containing 1 x 10^14 TU was diluted in 200 µl DMEM and injected into the tail vein of anesthetized BALB\c mice (2 month old females; Jackson Laboratories; Bar Harbor ME); Avertin™ (0.015 ml/g) was used as anesthetic (see Pasqualini and Ruoslahti, supra, 1996). After 1-4 minutes, mice were snap frozen in liquid nitrogen. To recover the phage, carcasses were partially thawed at room temperature for 1 hr, organs were collected and weighed, then were ground in 1 ml DMEM-PI (DMEM containing protease inhibitors (PI); phenylmethylsulfonyl fluoride (PMSF; 1 mM), aprotinin (20 µg/ml), leupeptin (1 µg/ml)).
# (§2) Organ samples were washed 3 times with ice cold DMEM-PI containing 1% bovine serum albumin (BSA), then directly incubated with 1 ml K91-kan bacteria for 1 hr. Ten ml NZY medium containing […] tetracycline (NZY/tet) was added to the bacterial culture, the mixture was incubated in a 37°C shaker for 1 hr, then 200 µl aliquots were plated in agar plates containing 40 µg/ml tetracycline (tet/agar).
# (§3) Individual colonies containing phage recovered from brain or kidney were grown for 16 hr in 5 ml NZY/tet. The bacterial cultures obtained from the individual colonies were pooled and the phage were purified and re-injected into mice as described above for a second round of in vivo panning. A third round of panning also was performed. Phage DNA was purified from individual bacterial colonies obtained from the second and the third round of in vivo panning and the DNA sequences encoding the peptides expressed by selected phage were determined (see Koivunen et al., supra, 1994b).
# Three rounds of in vivo panning in mice were performed. Kidney was used as a control organ. Mice were injected with two different mixtures of phage libraries. The first mixture contained libraries encoding CX9 (SEQ ID NO: 39), CX5C (SEQ ID NO: 36), CX6C (SEQ ID NO: 37) and CX7C (SEQ ID NO: 38) peptides (CX5-7/CX9 mixture; SEQ ID NOS: 36-39). The second mixture contained libraries encoding X2CX14CX2 (SEQ ID NO: 40) and X2CX18 (SEQ ID NO: 41) peptides (X2CX18/X2CX14CX2 mixture; SEQ ID NOS: 40 and 41).
# The phage library mixtures were administered to mice via tail vein injection. Phage input was […] of the CX5-7/CX9 (SEQ ID NOS: 36-39) mixture or 1 x 10^14 TU of the X2CX18/X2CX14CX2 (SEQ ID NOS: 40 and 41) mixture. […]
# brain [2] = experiment: Specificity of brain homing of individually amplified phage (TU in brain vs kidney); type: in vivo, mice; details: individual phage, same input titer
# Protocol: To determine the specificity of brain homing of the individual motifs identified, phage displaying the predominant motifs were amplified individually, diluted to the same input titer and administered to mice. Following administration, brain and kidney were removed and the number of TU of phage in each organ was determined. […] Specifically, the ratio of selective homing (brain:kidney) was about 8 for CNSRLHLRC (SEQ ID NO: 1) and for CLSSRLDAC (SEQ ID NO: 3), 4 for CENWWGDVC (SEQ ID NO: 2) and 9 for […] (SEQ ID NO: 16).
# [3] = system: Human 435 breast carcinoma cells; experiment: In vivo targeting of phage expressing an RGD peptide to a breast tumor; design: species or system nude mice; details: for RGD phage as compared to unselected control phage accumulated in the tumor: human breast carcinoma tumors
# Protocol: (§4) Human 435 breast carcinoma cells were inoculated into the mammary fat pad of nude mice. When the tumors attained a diameter of about 1 cm, phage expressing a specific RGD-containing peptide were administered to the tumor bearing mouse. Similar results to those discussed below also were obtained with nude mice bearing tumors formed by implantation of human melanoma C8161 cells or by implantation of mouse B16 melanoma cells.
# (§5) 1 x 10^9 phage expressing the RGD-containing peptide, CDCRGDCFC (SEQ ID NO: 57; see, Koivunen et al., supra, 1995) or control (insertless) phage were injected intravenously (iv) into the mice and allowed to circulate for 4 min. The mice then were snap frozen while under anesthesia, and various organs, including tumor, brain and kidney, were removed and the phage present in the organs was quantitated (see Pasqualini and Ruoslahti, supra, 1996).
# [4] = system: Human 435 breast carcinoma cells; experiment: In vivo panning in mice bearing a human breast carcinoma tumor; design: species or system nude mice; details: phage recovered from human breast cancer after third round, 14 cloned phage; for # clones: CX3CX3CX3C library
# Protocol: Human 435 breast carcinoma cells (Price et al., Cancer Res. 50:717-721 (1990)) were inoculated into the mammary fat pad of nude mice. When the tumors attained a diameter of about 1 cm, either a phage targeting experiment was performed, in which phage expressing a specific peptide were administered to the tumor bearing mouse, or in vivo panning was performed.
# The breast tumor bearing mice were injected with 1 x 10^9 phage expressing a library of CX3CX3CX3C (SEQ ID NO: 47) peptides, where X3 indicates three groups of independently selected, random amino acids. The phage were allowed to circulate for 4 min, then the mice were anesthetized, snap frozen in liquid nitrogen while under anesthesia, and the tumor was removed. Phage were isolated from the tumor and subjected to two additional rounds of in vivo panning.
# Following the third round of panning, phage were quantitated and the peptide sequences expressed by 14 different cloned phage were determined. The 14 cloned phage expressed 4 different peptides (Table 3).
# brain [5] = experiment: Homing of 125I-peptide/RBC complex to brain, with peptide competition; type: in vivo, mouse; details: 10 mM unlabeled peptide
# Protocol: The synthetic cyclic CLSSRLDAC (SEQ ID NO: 3) peptide (1 mg) was labeled with iodine-125 using the Bolton and Hunter reagent (Amersham; Arlington Heights IL). Labeled peptide was purified by reverse phase HPLC on Sep-Pak™ cartridges (Waters, Millipore Corp.; Milford PA) and the ^125I-peptide (200 µg) was coupled to 1 ml glutaraldehyde-stabilized sheep RBC (Sigma Chemical Co.; St. Louis MO) according to the manufacturer's instructions.
# Fifty µl ^125I-peptide/RBC (200,000 cpm), alone or with 10 mM of unlabeled CLSSRLDAC (SEQ ID NO: 3), which is a brain homing peptide, or CVRLNSLAC (SEQ ID NO: 43), which has no brain homing activity, was injected into the tail vein. After 2 min, each mouse was perfused through the heart with 50 ml DMEM and the brain and kidney were removed and assayed for radioactivity.
# kidney [6] = experiment: Selective kidney homing of individual phage (kidney vs brain); type: in vivo, mice
# Protocol: (§6) The amino acid sequences were determined for the inserts in 48 cloned phage that homed to kidney. The peptides expressed by these phage were represented by two predominant sequences, CLPVASC (SEQ ID NO: 21; 46% of the clones sequenced) and CGAREMC (SEQ ID NO: 22; 17% of the clones; see Table 2). In addition, the peptide CKGRSSAC (SEQ ID NO: 23) appeared three times and three other peptides were present twice each.
# kidney [7] = experiment: In vivo panning of phage peptide display libraries, kidney as the selected organ (brain control); design: species or system mice; details: phage recovered from kidney; for (% PHAGE): % of the 48 clones sequenced; for # PHAGE DISPLAYING SAME A.A. SEQUENCE: 48 cloned phage sequenced
# Protocol: as §1, §2, §3
# The same methodology used to isolate phage expressing brain homing peptides was used to isolate phage expressing peptides that home to kidney. In these experiments, brain was used as the control organ. A mixture of the CX5C (SEQ ID NO: 36) and the CX6C (SEQ ID NO: 37) libraries was administered as described above. Homing of phage to the kidney was obtained and an approximately 3x to 7x enrichment of phage homing to kidney was observed following a second round of in vivo panning.
# as §6
# [8] = system: Human 435 breast carcinoma cells; experiment: Competition of RGD phage tumor homing by coinjected free peptide; type: in vivo, nude mice; details: coinjection of 500 µg free peptide
# Protocol: as §4
# as §5, with “CDCRGDCFC” left out
# melanoma = experiment: Immunohistochemical staining (anti-M13) for phage localization in melanoma bearing mice; type: in vivo; details: 1 x 10^9 pfu phage iv, 4 min
# Protocol: Localization of the phage expressing a tumor homing peptide in the mouse organs was examined by immunohistochemical staining of the tumor and various other tissues. 1 x 10^9 pfu of a control (insertless) phage or a phage expressing the tumor homing peptide, CLSGSLSC ([…]), were injected, iv, into tumor bearing mice and allowed to circulate for 4 min. The mouse then was perfused with DMEM and various organs, including the tumor were removed and fixed in Bouin's solution. Histologic sections were prepared and stained using anti-M13 (phage) antibodies (see Pasqualini and Ruoslahti, supra, 1996).
# [9] = system: B16B15b mouse melanoma cells; experiment: In vivo panning in mice bearing an implanted mouse melanoma tumor; design: species or system nude mice; details: phage recovered from B16B15b tumors; 89 cloned phage sequenced
# Protocol: Mice bearing a melanoma were produced by implantation of B16B15b mouse melanoma cells, which produce highly vascularized tumors. B16B15b mouse melanoma cells were injected subcutaneously into the mammary fat pad of nude mice (2 months old) and tumors were allowed to grow until the diameter was about 1 cm. In vivo panning was performed as disclosed above. Approximately 1 x 10^12 transducing units of phage expressing the CX5C (SEQ ID NO: 36), CX6C (SEQ ID NO: 37) or […] library were injected, iv, and allowed to circulate for 4 min. Mice then were snap frozen in liquid nitrogen while under anesthesia, tumor tissue and brain (control organ) were removed, and phage were isolated as described above. Three rounds of in vivo panning were performed.
# The amino acid sequences were determined for the inserts in 89 cloned phage recovered from the B16B15b tumors. The peptides expressed by these phage were represented by two predominant sequences, CLSGSLSC (SEQ ID NO: 55; 52% of the clones sequenced) and WGTGLC (SEQ ID NO: 52; 25% of the clones; see Table 4).
substance,measurement,setting,value
WRCVLREGPAGGCAWFNRHRL (displayed on phage),(% PHAGE),brain [1],13.7%
same,# PHAGE DISPLAYING SAME A.A. SEQUENCE,brain [1],10
same,ratio of selective homing (brain:kidney),brain [2],~9
CDCRGDCFC,phage detected in the breast tumor as compared to brain and kidney,"[3]; 1 x 10^9 phage iv, 4 min",2-3 times
same,immunohistochemical staining for the phage in the tumor,[3]; breast tumors,accumulation of the RGD phage in the blood vessels within the tumor
same,RGD phage as compared to unselected control phage accumulated in the tumor,[3],80 fold
same,RGD phage as compared to unselected control phage accumulated in the tumor,[3]; listed as RGD phage,twenty- to eighty-fold
same,staining for the phage in brain or kidney (control organs),"[3]; mouse, in vivo",no staining
CNSRLHLRC (displayed on phage),(% PHAGE),brain [1],21.9%
same,# PHAGE DISPLAYING SAME A.A. SEQUENCE,brain [1],16
same,ratio of selective homing (brain:kidney),brain [2],about 8
CGEACGGQCALPC [breast tumor homing peptide],% of total phage sequenced,[4],28.6%
same,# clones,[4],4
CVRLNSLAC,effect of coadministered unlabeled peptide on brain homing of the CLSSRLDAC/RBC complex,brain [5],no effect
same,effect of coadministered unlabeled peptide on complex localizing to the kidney,brain [5],no effect
CGLMCQGACFDVC [peptide from phage recovered from human breast cancer],% of total phage sequenced,[4],7.1%
same,# clones,[4],1
CNGRCVSGCAGRC [breast tumor homing peptide],% of total phage sequenced,[4],21.4%
same,# clones,[4],3
CLPVASC (displayed on phage),ratio of selective kidney:brain homing,kidney [6],7
same,(% PHAGE),kidney [7],46% and 45.8%
same,# PHAGE DISPLAYING SAME A.A. SEQUENCE,kidney [7],22
CENWWGDVC (displayed on phage),(% PHAGE),brain [1],19% and 19.2%
same,# PHAGE DISPLAYING SAME A.A. SEQUENCE,brain [1],14
same,ratio of selective homing (brain:kidney),brain [2],~4
CKGRSSAC (cysteine pairing not given here; also: displayed on phage),ratio of selective kidney:brain homing,kidney [6],2
same,(% PHAGE),kidney [7],6.2%
CGAREMC (displayed on phage),ratio of selective kidney:brain homing,kidney [6],3
same,(% PHAGE),kidney [7],17% and 16.7%
same,# PHAGE DISPLAYING SAME A.A. SEQUENCE,kidney [7],8
CGRECPRLCQSSC [breast tumor homing peptide],% of total phage sequenced,[4],42.9%
ACDCRGDCFCG,reduction of the amount of RGD phage in the tumor by coinjected free peptide,[8],about tenfold
CLSGSLSC (not fully specified; cysteine pairing not given here; also: displayed on phage),immunostaining in the liver sinusoids and in spleen,melanoma,immunostaining was detected
same,immunostaining in the melanoma,melanoma,Strong immunostaining
same,staining in skin or in kidney samples,melanoma,Essentially no staining
same,# clones,[9],46
same,% of total phage,[9],52%

# Source: patent EP0987275B1, “Molecules that home to a selected organ or tissue in vivo” (LA JOLLA CANCER RESEARCH FOUNDATION, priority 1995, dated 2008)
